BindingDB's records for patent US11026923 (H. Lundbeck, 2021)

How the values were obtained:
Experiment in all cases: Inhibition Assay
[1] = target: Dual specificity calcium/calmodulin-dependent 3',5'-cyclic nucleotide phosphodiesterase 1B (Homo sapiens, UniProt Q01064)
Description: (§1) Reactions were initiated by addition of the cyclic nucleotide substrate, and reactions were allowed to proceed for 1 hr at room temperature before being terminated through mixing with 20 uL (0.2 mg) yttrium silicate SPA beads (PerkinElmer).

[2] = target: Dual specificity calcium/calmodulin-dependent 3',5'-cyclic nucleotide phosphodiesterase 1A (Human, UniProt P54750)
Description: as §1

[3] = target: Dual specificity calcium/calmodulin-dependent 3',5'-cyclic nucleotide phosphodiesterase 1C (Human, UniProt Q14123)
Chain of Dual specificity calcium/calmodulin-dependent 3',5'-cyclic nucleotide phosphodiesterase 1C (Q14123 whole entry): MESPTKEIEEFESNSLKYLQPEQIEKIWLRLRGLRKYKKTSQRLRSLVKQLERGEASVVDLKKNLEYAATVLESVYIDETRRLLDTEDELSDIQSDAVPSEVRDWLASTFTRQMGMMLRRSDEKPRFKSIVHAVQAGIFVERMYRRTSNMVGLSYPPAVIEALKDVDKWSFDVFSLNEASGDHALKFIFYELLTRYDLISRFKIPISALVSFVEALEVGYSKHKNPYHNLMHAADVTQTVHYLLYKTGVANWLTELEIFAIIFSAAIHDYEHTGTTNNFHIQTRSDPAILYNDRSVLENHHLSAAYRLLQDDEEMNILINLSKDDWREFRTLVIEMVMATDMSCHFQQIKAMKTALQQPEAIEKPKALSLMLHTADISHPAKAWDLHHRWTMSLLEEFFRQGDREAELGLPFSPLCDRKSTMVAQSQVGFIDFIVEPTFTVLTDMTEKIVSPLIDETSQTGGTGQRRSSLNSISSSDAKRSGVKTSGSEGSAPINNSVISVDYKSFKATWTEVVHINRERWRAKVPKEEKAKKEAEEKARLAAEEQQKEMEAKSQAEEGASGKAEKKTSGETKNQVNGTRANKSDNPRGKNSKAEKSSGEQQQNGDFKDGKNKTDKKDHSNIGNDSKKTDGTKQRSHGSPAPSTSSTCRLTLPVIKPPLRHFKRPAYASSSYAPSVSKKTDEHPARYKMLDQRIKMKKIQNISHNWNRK
Description: as §1

Chain of Dual specificity calcium/calmodulin-dependent 3',5'-cyclic nucleotide phosphodiesterase 1A (P54750 whole entry): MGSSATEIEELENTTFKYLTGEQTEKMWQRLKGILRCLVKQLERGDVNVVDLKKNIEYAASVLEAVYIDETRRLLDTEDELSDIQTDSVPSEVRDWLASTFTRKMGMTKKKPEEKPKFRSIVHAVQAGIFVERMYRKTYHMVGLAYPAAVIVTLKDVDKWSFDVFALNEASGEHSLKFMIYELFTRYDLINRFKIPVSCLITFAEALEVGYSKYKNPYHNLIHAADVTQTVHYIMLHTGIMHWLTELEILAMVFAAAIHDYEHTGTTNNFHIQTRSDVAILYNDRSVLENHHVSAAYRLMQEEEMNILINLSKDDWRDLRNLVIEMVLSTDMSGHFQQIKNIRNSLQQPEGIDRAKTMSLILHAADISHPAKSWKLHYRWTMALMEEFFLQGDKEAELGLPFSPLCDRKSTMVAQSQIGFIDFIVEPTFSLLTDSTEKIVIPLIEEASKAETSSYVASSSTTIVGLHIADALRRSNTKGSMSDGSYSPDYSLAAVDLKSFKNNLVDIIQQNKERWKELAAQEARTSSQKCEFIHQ
Chain of Dual specificity calcium/calmodulin-dependent 3',5'-cyclic nucleotide phosphodiesterase 1B (Q01064 whole entry): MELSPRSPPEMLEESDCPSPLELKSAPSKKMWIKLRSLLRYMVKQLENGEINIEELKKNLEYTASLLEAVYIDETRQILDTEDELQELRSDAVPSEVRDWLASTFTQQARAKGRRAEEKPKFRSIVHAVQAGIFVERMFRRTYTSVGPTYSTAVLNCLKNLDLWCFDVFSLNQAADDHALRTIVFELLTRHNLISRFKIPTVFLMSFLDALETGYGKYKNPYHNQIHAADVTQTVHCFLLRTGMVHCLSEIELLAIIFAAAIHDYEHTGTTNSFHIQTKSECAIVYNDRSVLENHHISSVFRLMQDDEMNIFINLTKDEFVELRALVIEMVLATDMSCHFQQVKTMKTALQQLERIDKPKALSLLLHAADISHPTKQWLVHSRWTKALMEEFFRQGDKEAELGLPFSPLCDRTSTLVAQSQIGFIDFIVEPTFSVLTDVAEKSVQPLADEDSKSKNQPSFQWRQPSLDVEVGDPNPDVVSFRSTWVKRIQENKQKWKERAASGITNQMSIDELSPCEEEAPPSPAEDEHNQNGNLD

Row | SMILES | IC50 [1] | IC50 [2] | IC50 [3]
1 | CC1=NN(C(C)C)/C(=C(/C=C/c2cn(C)nc2C)NCc2cnn(C)c2)C1 [US11026923, Example 61] | 120 nM | 550 nM | 680 nM
2 | COc1ccccc1/C=C/C(NCc1cnn(C)c1)=C1\CC(C)=NN1C(C)C [US11026923, Example 63] | 9.4 nM | 64 nM | 20 nM
3 | CC1=NN(C(C)C)/C(=C(/C=C/c2ccsc2C)NCc2cnn(C)c2)C1 [US11026923, Example 65] | 1.2 nM | 7.9 nM | 
4 | CC1=NN(C(C)C)/C(=C(/C=C/c2cnn(C)c2C)NCc2cnn(C)c2)C1 [US11026923, Example 66] | 59 nM | 210 nM | 220 nM
5 | CC1=NN(C(C)C)/C(=C(/C=C/c2ccccc2)NCc2cnn(C)c2)C1 [US11026923, Example 64] | 12 nM | 52 nM | 47 nM
6 | COc1ncccc1/C=C/C(NCc1cnn(C)c1)=C1\CC(C)=NN1C(C)C [US11026923, Example 62] | 2.4 nM | 16 nM | 21 nM
